The values that follow come from patent US11919902B2, “Aryl-bipyridine amine derivatives as phosphatidylinositol phosphate kinase inhibitors” (HiberCell, Inc., priority 2017, dated 2024).

One may read the IC50 as the midpoint of a concentration-inhibition curve.

For test [1], the target named is T1, PIP4K2A (full length protein, SignalChem) (Homo sapiens, UniProt P48426).
T1 construct: 4 nM PIP4K2A (full length protein, SignalChem); purchased SignalChem
T1 sequence (P48426 1-406): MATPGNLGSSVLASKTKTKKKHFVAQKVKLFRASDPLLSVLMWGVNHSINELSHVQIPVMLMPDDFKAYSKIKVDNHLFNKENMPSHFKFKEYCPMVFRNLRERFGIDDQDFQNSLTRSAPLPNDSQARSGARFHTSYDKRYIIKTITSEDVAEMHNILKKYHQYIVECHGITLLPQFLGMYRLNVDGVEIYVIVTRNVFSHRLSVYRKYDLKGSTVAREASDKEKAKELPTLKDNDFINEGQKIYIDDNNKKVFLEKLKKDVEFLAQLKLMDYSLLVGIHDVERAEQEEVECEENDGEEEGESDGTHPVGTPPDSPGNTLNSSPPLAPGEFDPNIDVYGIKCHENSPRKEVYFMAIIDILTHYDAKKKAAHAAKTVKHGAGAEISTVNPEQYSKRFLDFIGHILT
Kind of test: Kinase Assay PIP4K2 A (Sprint); ADP-Glo biochemical assay. Conditions: Table 2; compounds listed under IC50 range headings. The essentials: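 ADP-Glo luminescence detected ADP after a 1 h RT reaction started with 60 μM ATP solution. Before that, full-length PIP4K2A (4 nM in mix) with 100 μM PI(5)P diC8 was pre-incubated 15 min with compounds in MOPS buffer pH 7.2, 25 mM MgCl2, 0.005% Tween 20. IC50 derived from % inhibition relative to DMSO over 10 three-fold concentrations.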
In general terms: ADP-Glo first removes unused ATP, then detects ADP through luciferase.

Another test addresses T2, GST tagged PIP4KtypeIIB (Homo sapiens, UniProt P78356).
T2 construct: made in house; host or cells: E. coli
T2 sequence (P78356 1-416): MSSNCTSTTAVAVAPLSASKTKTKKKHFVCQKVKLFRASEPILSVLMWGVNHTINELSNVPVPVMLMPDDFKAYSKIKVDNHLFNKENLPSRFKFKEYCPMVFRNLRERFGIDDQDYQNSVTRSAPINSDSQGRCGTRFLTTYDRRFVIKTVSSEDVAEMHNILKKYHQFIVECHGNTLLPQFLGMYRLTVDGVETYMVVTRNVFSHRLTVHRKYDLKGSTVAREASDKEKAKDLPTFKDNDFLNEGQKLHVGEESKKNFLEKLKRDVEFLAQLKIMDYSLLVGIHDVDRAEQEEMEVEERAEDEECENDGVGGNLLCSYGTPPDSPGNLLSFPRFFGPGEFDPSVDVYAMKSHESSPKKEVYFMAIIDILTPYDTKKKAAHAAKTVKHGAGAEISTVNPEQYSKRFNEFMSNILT
Kind of test: Trans-FI P kinase assay PIP4K2B (PIP4KtypeIIB inhibition assay). Type of test: biochemical. Conditions: Table 4; compounds listed under IC50 range headings; 100 uM GTP, 5 nM PIP4KIIB; read-out: Trans-FI P kinase assays: PIP4K2B IC50. In outline:
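Transcreener FI fluorescence, converted to GDP by calibration, tracked product from 5 nM E. coli-expressed GST-PIP4KIIB acting on 80 uM PI5P (DOPE carrier) with 100 uM GTP. Compound (top 4.8 uM final, 5% DMSO) was preincubated 1 h at 27 C before the 2 h reaction; IC50 fitted from residual activity.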

The next test addresses T3, GST tagged PIP4KtypeIIA (Homo sapiens, UniProt P48426).
T3 construct: made in house; host or cells: E. coli
T3 sequence (P48426 1-406): T1 sequence (P48426 1-406)
The experiment in a line: ADP-glo kinase assay PIP4K 2A (PIP4KtypeIIA inhibition assay). Conditions: Table 3; compounds listed under IC50 range headings; 10 uM ATP, 0.5 nM PIP4KIIA. It counts as biochemical. In outline: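 Read-out was ADP-Glo luminescence converted to μM ADP, with IC50 plotted as % of no-inhibitor activity against log concentration. Reactions contained 10 μM ATP, 80 μM PI5P with DOPE carrier, and 0.5 nM GST-tagged PIP4KIIA (E. coli-expressed) in pH 7.3 HEPES/MgCl2 buffer with 5% DMSO. Enzyme and compound (≤4.8 μM) were preincubated 1 h at 27 °C before the 1 h reaction.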

SMILES strings stand for the structures.

Take `COC(=O)c1cc2c(-c3cncc(-c4ccc(N5CCCC5=O)cc4)c3)ccnc2[nH]1` [Example 302, methyl 4-(5-(4-(2-oxopyrrolidin-1-yl)phenyl)pyridin-3-yl)-1H-pyrrolo[2,3-b]pyridine-2-carboxylate]: the IC50 in test [1] fell in the range of 5 to 100 nM; on GST tagged PIP4KtypeIIB, 10 to 100 nM; against GST tagged PIP4KtypeIIA, 10 to 100 nM.
For `CCOc1cnc2[nH]ccc2c1-c1cncc(-c2ccc(N3CCCC3=O)cc2)c1` [Example 59, 1-(4-(5-(5-ethoxy-1H-pyrrolo[2,3-b]pyridin-4-yl)pyridin-3-yl)phenyl)pyrrolidin-2-one], the IC50 is 100 to 1000 nM in test [1], 100 to 1000 nM on GST tagged PIP4KtypeIIB and 1000 to 2500 nM against GST tagged PIP4KtypeIIA.
Turning to `CN(CC1CCCNC1)C(=O)c1ccc(-c2cncc(-c3ccncc3)c2)cc1` (stereo not drawn) [Example 180, 4-([3,4′-bipyridin]-5-yl)-N-methyl-N-(piperidin-3-ylmethyl)benzamide], the IC50 in test [1] was under 5000 nM; at GST tagged PIP4KtypeIIB it was over 5000 nM; at GST tagged PIP4KtypeIIA, over 5000 nM.
As for `O=C1CCCN1c1ccc(-c2cncc(-c3c[nH]c4ncccc34)c2)cc1` [Example 28, 1-(4-(5-(1H-pyrrolo[2,3-b]pyridin-3-yl)pyridin-3-yl)phenyl)pyrrolidin-2-one], the half-maximal inhibitory concentration (IC50) in test [1] lay within 5 to 100 nM; on GST tagged PIP4KtypeIIB, 100 to 1000 nM; against GST tagged PIP4KtypeIIA, 100 to 1000 nM.
In the case of `CN(C)C(=O)c1ccc(-c2cc(-c3ccnc4[nH]c(=O)[nH]c34)cnc2N)nc1` [Example 113, 2′-amino-N,N-dimethyl-5′-(2-oxo-2,3-dihydro-1H-imidazo[4,5-b]pyridin-7-yl)-[2,3′-bipyridine]-5-carboxamide], the values for the concentration for half-maximal inhibition (IC50) (in test [1]; at GST tagged PIP4KtypeIIB; on GST tagged PIP4KtypeIIA) were 5 to 100 nM, 100 to 1000 nM and 100 to 1000 nM, respectively.
Turning to `CN(C)C(=O)c1cnc2n[nH]c(-c3cncc(-c4ccc(N5CCCC5=O)cc4)c3)c2c1` [Example 227, N,N-dimethyl-3-(5-(4-(2-oxopyrrolidin-1-yl)phenyl)pyridin-3-yl)-2H-pyrazolo[3,4-b]pyridine-5-carboxamide], the IC50 lay within 5 to 100 nM in test [1], 100 to 1000 nM at GST tagged PIP4KtypeIIB and 100 to 1000 nM at GST tagged PIP4KtypeIIA.
Take `Cc1cc(N2CCCC2=O)ccc1-c1cncc(-c2cn(C)c3ncc(C(C)(C)O)cc23)c1` [Example 168, 1-(4-(5-(5-(2-hydroxypropan-2-yl)-1-methyl-1H-pyrrolo[2,3-b]pyridin-3-yl)pyridin-3-yl)-3-methylphenyl)pyrrolidin-2-one]: the IC50 is 100 to 1000 nM in test [1], 2500 to 5000 nM on GST tagged PIP4KtypeIIB and 2500 to 5000 nM against GST tagged PIP4KtypeIIA.
On to `Cn1ccc2c(-c3cncc(-c4ccc(N5CCCC5=O)cc4)c3)cn(C)c2c1=O` [Example 243, 1,6-dimethyl-3-(5-(4-(2-oxopyrrolidin-1-yl)phenyl)pyridin-3-yl)-1,6-dihydro-7H-pyrrolo[2,3-c]pyridin-7-one], for which the IC50 (in test [1]; on GST tagged PIP4KtypeIIB; on GST tagged PIP4KtypeIIA) was 100 to 1000 nM in each case.
Turning to `CN1CCn2c(cc3c(-c4cncc(-c5ccc(C(=O)N6CCCCC6)cc5)c4)ccnc32)C1=O` [Example 354, 7-methyl-4-(5-(4-(piperidine-1-carbonyl)phenyl)pyridin-3-yl)-8,9-dihydropyrido[3′,2′:4,5]pyrrolo[1,2-a]pyrazin-6(7H)-one], the concentration for half-maximal inhibition (IC50) in test [1] lay in the range of 100 to 1000 nM; at GST tagged PIP4KtypeIIB it was 10 to 100 nM; at GST tagged PIP4KtypeIIA, 100 to 1000 nM.
Consider `COc1ncc(-c2cncc(-c3ccc(N4CCCC4=O)cc3)c2)c2cn(C)nc12` [Example 157, 1-[4-[5-(7-methoxy-2-methyl-pyrazolo[3,4-c]pyridin-4-yl)-3-pyridyl]phenyl]pyrrolidin-2-one], for which the IC50 (in test [1]; on GST tagged PIP4KtypeIIB; at GST tagged PIP4KtypeIIA) was 100 to 1000 nM each time.
Take `O=C1NCc2c(-c3cncc(-c4ccc(N5CCCC5=O)cc4)c3)ccnc21` [Example 78, 4-[5-[4-(2-Oxopyrrolidin-1-yl)phenyl]-3-pyridyl]-5,6-dihydropyrrolo[3,4-b]pyridin-7-one]: the IC50 in test [1] was 5 to 100 nM; at GST tagged PIP4KtypeIIB, 100 to 1000 nM; against GST tagged PIP4KtypeIIA, 100 to 1000 nM.
